This is an account of results in US20260035365A1, “1H-PYRROLO[3,2-B]PYRIDINE DERIVATIVES AS IRREVERSIBLE INHIBITORS OF MUTANT EGFR FOR THE TREATMENT OF CANCER” (Bayer Aktiengesellschaft, priority 2022, published 2026).

The target of assay [1] is mutEGFR (D770_N771insNPG, T790). As to the kind of experiment: mutEGFR (D770_N771insNPG, T790) kinase assay. Format: biochemical, human.
In assay [2] the target is mutEGFR (D770_N771insSVD) (Homo sapiens, UniProt P00533, INS767SVD). In words: Exon20-mutant-EGFR (D770_N771insSVD) TR-FRET kinase assay. To be noted: 2 mM ATP, 15 min preincubation. It is filed as biochemical. The method in brief:
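GST-fused human EGFR fragment R669-A1210 carrying the SVD insertion, Sf9-expressed, typically 15 pg/μl, was preincubated with compound for 15 min at 22° C in pH 7.0 Hepes/MgCl2 buffer. Phosphorylation was read by HTRF (665/620 nm ratio), normalised to no-inhibitor and no-enzyme controls.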

The subject of a further assay is BA/F3 (insSVD) cells. In words: Ba/F3 cell survival assay (Cell Titer-Glo), EGFR-insSVD. The settings on record: Mus musculus, BaF3, 48 h, without IL-3, with EGF. Format: cell-based. An outline of the steps: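 Ba/F3 cells stably expressing EGFR-insSVD or insSVD T790M via retrovirus (puromycin-selected), switched from IL-3 to 10 ng/mL EGF for 2 days, then plated at 4000 cells/well. Compound added by 100 nL pin transfer; 48 h at 37° C. Viability by CellTiter-Glo luminescence.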

mutEGFR (D770_N771insSVD), sequence (P00533 with tags, fused parts or gaps INS767SVD limits assumed): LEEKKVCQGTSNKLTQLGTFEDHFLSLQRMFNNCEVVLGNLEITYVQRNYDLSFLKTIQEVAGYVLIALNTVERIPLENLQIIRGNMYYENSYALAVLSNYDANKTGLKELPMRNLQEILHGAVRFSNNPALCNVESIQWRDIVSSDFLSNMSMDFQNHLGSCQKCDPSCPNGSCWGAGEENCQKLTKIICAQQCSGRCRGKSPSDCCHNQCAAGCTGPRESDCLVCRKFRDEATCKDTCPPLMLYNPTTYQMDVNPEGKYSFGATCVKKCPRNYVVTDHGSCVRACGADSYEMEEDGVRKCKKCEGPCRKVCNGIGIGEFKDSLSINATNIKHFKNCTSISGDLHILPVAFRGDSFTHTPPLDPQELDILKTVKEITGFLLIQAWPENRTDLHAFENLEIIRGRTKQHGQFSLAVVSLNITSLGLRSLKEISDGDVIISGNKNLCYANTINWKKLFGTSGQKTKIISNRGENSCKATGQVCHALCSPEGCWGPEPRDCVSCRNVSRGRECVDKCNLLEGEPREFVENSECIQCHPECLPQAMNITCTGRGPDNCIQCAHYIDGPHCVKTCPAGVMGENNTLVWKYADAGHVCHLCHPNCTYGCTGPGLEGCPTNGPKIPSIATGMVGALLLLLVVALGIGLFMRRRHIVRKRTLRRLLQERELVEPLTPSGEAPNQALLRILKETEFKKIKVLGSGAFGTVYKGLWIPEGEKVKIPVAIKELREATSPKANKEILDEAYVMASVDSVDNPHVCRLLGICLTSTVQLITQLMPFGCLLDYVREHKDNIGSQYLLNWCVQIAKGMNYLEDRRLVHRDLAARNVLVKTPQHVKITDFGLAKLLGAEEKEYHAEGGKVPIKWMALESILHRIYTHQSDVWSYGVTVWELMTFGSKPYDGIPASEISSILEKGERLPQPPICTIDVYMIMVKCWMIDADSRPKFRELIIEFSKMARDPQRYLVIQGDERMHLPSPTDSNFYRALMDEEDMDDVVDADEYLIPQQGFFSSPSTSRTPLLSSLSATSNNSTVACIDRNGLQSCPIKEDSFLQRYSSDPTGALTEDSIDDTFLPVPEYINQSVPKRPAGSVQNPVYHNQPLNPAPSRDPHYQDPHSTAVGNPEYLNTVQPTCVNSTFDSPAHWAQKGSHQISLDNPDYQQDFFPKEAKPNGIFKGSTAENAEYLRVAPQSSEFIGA
mutEGFR (D770_N771insNPG, T790), sequence (P00533 with tags, fused parts or gaps INS770NPG limits assumed): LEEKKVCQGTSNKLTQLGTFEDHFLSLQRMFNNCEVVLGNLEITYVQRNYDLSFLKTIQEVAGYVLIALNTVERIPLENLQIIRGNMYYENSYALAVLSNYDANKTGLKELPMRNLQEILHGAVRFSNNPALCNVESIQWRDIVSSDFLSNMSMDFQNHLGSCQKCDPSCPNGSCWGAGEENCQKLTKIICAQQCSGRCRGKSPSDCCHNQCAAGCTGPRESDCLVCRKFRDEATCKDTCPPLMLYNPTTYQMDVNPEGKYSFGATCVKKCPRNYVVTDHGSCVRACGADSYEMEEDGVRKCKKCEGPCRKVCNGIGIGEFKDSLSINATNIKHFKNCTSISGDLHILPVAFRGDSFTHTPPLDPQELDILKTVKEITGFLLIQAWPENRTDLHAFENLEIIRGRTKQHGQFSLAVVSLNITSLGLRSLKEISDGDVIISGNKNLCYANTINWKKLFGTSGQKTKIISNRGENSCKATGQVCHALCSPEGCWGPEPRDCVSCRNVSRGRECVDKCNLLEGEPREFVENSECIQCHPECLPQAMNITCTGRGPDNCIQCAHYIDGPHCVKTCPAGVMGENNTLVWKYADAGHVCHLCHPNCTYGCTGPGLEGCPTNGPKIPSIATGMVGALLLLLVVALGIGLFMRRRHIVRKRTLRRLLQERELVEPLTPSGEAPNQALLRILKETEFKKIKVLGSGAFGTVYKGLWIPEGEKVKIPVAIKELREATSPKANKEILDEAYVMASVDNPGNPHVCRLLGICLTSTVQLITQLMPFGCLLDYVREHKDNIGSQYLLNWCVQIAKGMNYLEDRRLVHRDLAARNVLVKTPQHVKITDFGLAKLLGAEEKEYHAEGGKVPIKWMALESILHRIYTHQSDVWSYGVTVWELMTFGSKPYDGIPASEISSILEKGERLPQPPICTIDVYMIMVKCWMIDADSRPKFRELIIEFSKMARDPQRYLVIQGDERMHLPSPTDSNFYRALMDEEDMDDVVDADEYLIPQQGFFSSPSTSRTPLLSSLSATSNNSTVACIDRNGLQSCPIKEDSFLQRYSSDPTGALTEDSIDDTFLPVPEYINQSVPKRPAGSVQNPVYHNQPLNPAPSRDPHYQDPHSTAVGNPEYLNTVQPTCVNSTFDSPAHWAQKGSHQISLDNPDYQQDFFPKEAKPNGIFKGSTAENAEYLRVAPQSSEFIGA

On to `C=CS(=O)(=O)N1CCC[C@H]1COc1cnccc1-c1[nH]c2cccnc2c1-c1cc(C(F)(F)F)ccc1F` [Example 101, 2-(3-{[(2S)-1-(ethenesulfonyl)pyrrolidin-2-yl]methoxy}pyridin-4-yl)-3-[2-fluoro-5-(trifluoromethyl)phenyl]-1H-pyrrolo[3,2-b]pyridine], for which the IC50 in assay [1] was determined as 89.8 nM; in assay [2], 52.2 nM; in the assay with BA/F3 (insSVD) cells, 957 nM.
On the same counts, the results for `C=CC(=O)N(C)CCOc1cnccc1-c1[nH]c2cccnc2c1-c1cc(C(F)(F)F)ccc1F` [Example 51, N-{2-[(4-{3-[2-fluoro-5-(trifluoromethyl)phenyl]-1H-pyrrolo[3,2-b]pyridin-2-yl}pyridin-3-yl)oxy]ethyl}-N-methylprop-2-enamide] are 132 nM, 75.6 nM and 1920 nM.
On the same counts, the results for `C#CC(=O)N1CCC(Oc2cnccc2-c2[nH]c3cccnc3c2-c2cc(C)ccc2F)C1` (racemic) [Example 125, 1-[(3RS)-3-({4-[3-(2-fluoro-5-methylphenyl)-1H-pyrrolo[3,2-b]pyridin-2-yl]pyridin-3-yl}oxy)pyrrolidin-1-yl]prop-2-yn-1-one] are 219 nM, 80.8 nM and 1030 nM.
With `C=CC(=O)N1CCC(Oc2cnccc2-c2[nH]c3cccnc3c2-c2cccc(Cl)c2)C1` (racemic) [Example 119, 1-[(3RS)-3-({4-[3-(3-chlorophenyl)-1H-pyrrolo[3,2-b]pyridin-2-yl]pyridin-3-yl}oxy)pyrrolidin-1-yl]prop-2-en-1-one], the IC50 was 58 nM in assay [1], 14 nM in assay [2] and 549 nM in the assay with BA/F3 (insSVD) cells.
The corresponding values for `C=CC(=O)N(C)CCOc1cnccc1-c1[nH]c2cccnc2c1-c1cccc(OC(F)(F)F)c1` [Example 58, N-methyl-N-{2-[(4-{3-[3-(trifluoromethoxy)phenyl]-1H-pyrrolo[3,2-b]pyridin-2-yl}pyridin-3-yl)oxy]ethyl}prop-2-enamide] are 1160 nM, 249 nM and 6280 nM.
The corresponding values for `C=CC(=O)N(C)CCOc1cnccc1-c1[nH]c2cccnc2c1-c1cccc(OC)c1` [Example 54, N-[2-({4-[3-(3-methoxyphenyl)-1H-pyrrolo[3,2-b]pyridin-2-yl]pyridin-3-yl}oxy)ethyl]-N-methylprop-2-enamide] are 240 nM, 118 nM and 3960 nM.
The corresponding values for `C=CC(=O)N(C)CCOc1cnccc1-c1[nH]c2cccnc2c1-c1cc(Cl)ccc1Cl` [Example 57, N-[2-({4-[3-(2,5-dichlorophenyl)-1H-pyrrolo[3,2-b]pyridin-2-yl]pyridin-3-yl}oxy)ethyl]-N-methylprop-2-enamide] are 450 nM, 156 nM and 4590 nM.
Consider `C=CC(=O)N1CCC[C@H]1COc1cnccc1-c1[nH]c2cccnc2c1-c1cccc(C#N)c1` [Example 87, 3-[2-(3-{[(2S)-1-(prop-2-enoyl)pyrrolidin-2-yl]methoxy}pyridin-4-yl)-1H-pyrrolo[3,2-b]pyridin-3-yl]benzonitrile], for which the IC50 in assay [1] amounted to 33.8 nM; in assay [2], 15.2 nM; in the assay with BA/F3 (insSVD) cells, 759 nM.
As to `C=CC(=O)N1C=C(F)C[C@H]1COc1cnccc1-c1[nH]c2cccnc2c1-c1ccccc1` [Example 113, 1-[(2S)-4-fluoro-2-({[4-(3-phenyl-1H-pyrrolo[3,2-b]pyridin-2-yl)pyridin-3-yl]oxy}methyl)-2,3-dihydro-1H-pyrrol-1-yl]prop-2-en-1-one], the IC50 turned out to be 0.724 nM in assay [1], 0.114 nM in assay [2] and 9.99 nM in the assay with BA/F3 (insSVD) cells.
For `C=CC(=O)N1CCC[C@H]1COc1cnccc1-c1[nH]c2cccnc2c1-c1ccccc1F` [Example 89, 1-{(2S)-2-[({4-[3-(2-fluorophenyl)-1H-pyrrolo[3,2-b]pyridin-2-yl]pyridin-3-yl}oxy)methyl]pyrrolidin-1-yl}prop-2-en-1-one], the IC50 in assay [1] was 2.31 nM; in assay [2], 0.547 nM; with BA/F3 (insSVD) cells, 24.2 nM.
On the same counts, the results for `C=CC(=O)N1CCC(Oc2cnccc2-c2[nH]c3cccnc3c2-c2ccccc2)C1` (racemic) [Example 116, 1-[(3RS)-3-{[4-(3-phenyl-1H-pyrrolo[3,2-b]pyridin-2-yl)pyridin-3-yl]oxy}pyrrolidin-1-yl]prop-2-en-1-one] are 215 nM, 52.4 nM and 1520 nM.
The corresponding values for `C=CC(=O)N1CCC[C@H]1COc1cnccc1-c1[nH]c2cccnc2c1-c1cc(C#N)ccc1F` [Example 90, 4-fluoro-3-[2-(3-{[(2S)-1-(prop-2-enoyl)pyrrolidin-2-yl]methoxy}pyridin-4-yl)-1H-pyrrolo[3,2-b]pyridin-3-yl]benzonitrile] are 62.5 nM, 34.3 nM and 999 nM.
Consider `CN(C)CC#CC(=O)N1CCC[C@H]1COc1cnccc1-c1[nH]c2cccnc2c1-c1ccccc1` [Example 100, 4-(dimethylamino)-1-[(2S)-2-({[4-(3-phenyl-1H-pyrrolo[3,2-b]pyridin-2-yl)pyridin-3-yl]oxy}methyl)pyrrolidin-1-yl]but-2-yn-1-one], for which the IC50 was determined as 4.67 nM in assay [1], 1.11 nM in assay [2] and 57.5 nM in the assay on BA/F3 (insSVD) cells.
On the same counts, the results for `CN(C)C/C=C/C(=O)N1CCOCC1COc1cnccc1-c1[nH]c2cccnc2c1-c1cc(Cl)ccc1F` (stereo not drawn) [Example 152, (2E)-1-{3-[({4-[3-(5-chloro-2-fluorophenyl)-1H-pyrrolo[3,2-b]pyridin-2-yl]pyridin-3-yl}oxy)methyl]morpholin-4-yl}-4-(dimethylamino)but-2-en-1-one] are 353 nM, 164 nM and 1880 nM.
On the same counts, the results for `C=CS(=O)(=O)N1CCC[C@H]1COc1cnccc1-c1[nH]c2cccnc2c1-c1ccc(F)c(OC(F)(F)F)c1` [Example 108, 2-(3-{[(2S)-1-(ethenesulfonyl)pyrrolidin-2-yl]methoxy}pyridin-4-yl)-3-[4-fluoro-3-(trifluoromethoxy)phenyl]-1H-pyrrolo[3,2-b]pyridine] are 2.41 nM, 0.557 nM and 70.4 nM.
On the same counts, the results for `C=CC(=O)N(C)CCOc1cnccc1-c1[nH]c2cccnc2c1-c1cc(OC)ccc1F` [Example 56, N-[2-({4-[3-(2-fluoro-5-methoxyphenyl)-1H-pyrrolo[3,2-b]pyridin-2-yl]pyridin-3-yl}oxy)ethyl]-N-methylprop-2-enamide] are 395 nM, 152 nM and 4180 nM.
For `C=CC(=O)N1CCC[C@H]1COc1cnccc1-c1[nH]c2cccnc2c1-c1ccc2cccnc2c1` [Example 79, 1-{(2S)-2-[({4-[3-(quinolin-7-yl)-1H-pyrrolo[3,2-b]pyridin-2-yl]pyridin-3-yl}oxy)methyl]pyrrolidin-1-yl}prop-2-en-1-one], the values for the IC50 (in assay [1]; in assay [2]; in the assay on BA/F3 (insSVD) cells) were 9.38 nM, 4.41 nM and 367 nM, respectively.
On the same counts, the results for `C=CC(=O)N1CCC(Oc2cnccc2-c2[nH]c3cccnc3c2-c2cc(Cl)ccc2F)C1` (racemic) [Example 127, 1-[(3RS)-3-({4-[3-(5-chloro-2-fluorophenyl)-1H-pyrrolo[3,2-b]pyridin-2-yl]pyridin-3-yl}oxy)pyrrolidin-1-yl]prop-2-en-1-one] are 97.6 nM, 25.4 nM and 691 nM.
